From patent US7414023B2, “Peptide ligands for prostate specific antigen” (Licentia Ltd., priority 2000, dated 2008) come the findings set out here.

Series [1] deals with T1, PSA (Homo sapiens, UniProt P07288). The series is described as follows: Enzyme activity of PSA with chromogenic substrate S-2586. To be noted: GST-peptides, S-2586; for minimum peptide concentration affecting the activity: PSA enzyme activity. In kind it is biochemical. More on the design: PSA was purified from human seminal fluid as described previously (3); from tissue; host or cells: human seminal fluid. The method, then: The enzyme activity of PSA was studied in the presence of peptides alone or together with Zn^2+ by using the chymotrypsin substrate S-2586 (MeO-Suc-Arg-Pro-Tyr-pNA) (Chromogenix, Mölndal, Sweden). […] PSA (333 nM) was incubated with a 1-100-fold molar excess of GST-peptide or 100-fold excess of synthetic peptide in TBS buffer, pH 7.8 containing 0.5 g/L BSA for 1 h at 22° C. The effect of Zn^2+ on the enzyme activity of PSA was studied by including 1-200 μM of ZnCl2 in the reaction buffer. The combined effect of peptides and Zn2+ on the enzyme activity of PSA was studied by incubating PSA (333 nM) with peptide (333 nM) in the buffer containing 1-200 μM Zn^2+ for 1 h. After addition of substrate to a final concentration 0.2 mM, the absorbance was monitored at 5-min intervals for 2 h at 405 nm on a Labsystems Multiskan MCC/340 photometer (Labsystems, Helsinki, Finland). As a control, the effect of wild type GST on the enzyme activity of PSA was tested.
T1 sequence (P07288 25-261): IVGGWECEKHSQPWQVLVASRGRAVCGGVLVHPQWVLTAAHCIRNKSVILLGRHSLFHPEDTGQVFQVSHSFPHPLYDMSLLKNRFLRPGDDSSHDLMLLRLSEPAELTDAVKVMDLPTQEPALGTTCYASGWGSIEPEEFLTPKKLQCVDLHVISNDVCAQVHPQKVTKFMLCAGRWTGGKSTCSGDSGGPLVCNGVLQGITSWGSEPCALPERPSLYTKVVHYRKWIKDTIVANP
In the experiments, PSA (0.33 μM) was incubated with increasing concentrations of GST-C-4 (0-100-fold molar excess) for 1 h, after which the chromogenic substrate S-2586 was added and enzyme activity was monitored by measuring the absorbance at 405 nm. Data represent mean values from duplicate wells ±SE.
PSA (0.33 μM) was incubated with chemically synthesized peptides (100-fold molar excess) for 1 h, after which the chromogenic substrate S-2586 was added and enzyme activity was monitored by measuring the absorbance at 405 nm.
Because zinc is known to inhibit the enzyme activity of PSA, we further characterized the effect of GST-peptides on the enzyme activity of PSA by assessing the combined effect of peptides and Zn^2+. […] The effect of GST-C-4 and Zn^2+ on enzyme activity was determined by incubating PSA (0.33 μM) with the same molar concentration of GST-C-4 and various concentrations of Zn^2+. The reaction was monitored by measuring absorbance at 405 nm after addition of the chromogenic substrate S-2586. […] Data represent mean values from duplicate wells ±SE.
(§1) Data represent mean values from duplicate wells ±SE.
As control the enzyme activity of PSA alone was measured.
as §1
20 μg of the peptide was iodinated by the Iodogen method. After iodination the peptide was purified by using C18 Sep-Pak column.

Series [2] deals with T1, PSA. Briefly: Proteolytic cleavage of IGF-BP-3 by PSA, IGF-BP-3 IFMA. In kind it is biochemical. Also noted: PSA was purified from human seminal fluid as described previously (3); from tissue; host or cells: human seminal fluid. To be noted: PSA 5 μg/mL, 100-fold molar excess of synthetic peptide, IGF-BP-3 70 ng/mL, 16 h at 37° C.; PSA alone 30%. The procedure:
The extent of the cleavage of the substrate was quantitated by monitoring the decrease in IGF-BP-3 immunoreactivity due to proteolytic cleavage of it. PSA (5 μg/mL) was incubated with IGF-BP-3 (70 ng/mL) for 16 h at 37° C. with 100-fold molar excess of peptides to PSA and measured for IGF-BP3 immunoreactivity by IFMA as described (33). As control, the peptide was also added to the reaction mixture containing PSA and IGF-BP3 just before starting the immunoassay to quantify the possible interference of the peptide in the IFMA for IGF-BP-3.
In the experiments, PSA (5 μg/mL) in TBS buffer, pH 7.8 alone or with 100-fold molar excess of peptide was incubated with IGF-BP-3 (70 ng/mL) for 16 h at 37° C., after which the concentration of intact IGF-BP-3 was determined by IFMA.

Bridge positions count the residues as written; N and C are the ends. Peptide text beside a SMILES is read from it.

Take `CC(C)C[C@@H]1NC(=O)[C@H](Cc2ccc(O)cc2)NC(=O)[C@H](CC(=O)O)NC(=O)[C@H](Cc2ccc(O)cc2)NC(=O)[C@H](CC(N)=O)NC(=O)[C@H](Cc2c[nH]cn2)NC(=O)[C@H](C)NC(=O)[C@H](Cc2ccccc2)NC(=O)[C@H](C(C)C)NC(=O)[C@@H](N)CSSC[C@@H](C(=O)O)NC(=O)[C@H](C(C)C)NC1=O` [Peptide B-2] (H-CVFAHNYDYLVC-OH; disulfide 1-12; N-terminus assumed): on PSA [1], the “minimum peptide concentration affecting the activity” value is on record as 300 nM.
As to CVFTSDYAFC [Peptide A-1], in the series with PSA [1] (PSA 0.33 μM, read-out: 50% stimulation (μM): peptide concentration required for half maximal stimulation of the enzyme activity of PSA), the EC50 was found to be 2.2 µM. The “minimum peptide concentration affecting the activity” value at PSA [1] stood at 300 nM. In addition, on PSA [2], the “cleavage of IGF-BP-3 by PSA in the presence of peptide” value is “about 70%”.
